Measured values published in ChEMBL document CHEMBL1129734, “Synthesis and structure-activity relationships of a new model of arylpiperazines. 1. 2-[[4-(o-methoxyphenyl)piperazin-1-yl]methyl]-1, 3-dioxoperhydroimidazo[1,5-alpha]pyridine: a selective 5-HT1A receptor agonist” (J Med Chem, 1996).

Assays:
[1] = molecular target: T1, 5-hydroxytryptamine receptor 1A (Rattus norvegicus, UniProt P19327); assay: Binding affinity towards rat 5-hydroxytryptamine 1A receptor using [3H]8-OH-DPAT radioligand.
T1 sequence (P19327 whole entry): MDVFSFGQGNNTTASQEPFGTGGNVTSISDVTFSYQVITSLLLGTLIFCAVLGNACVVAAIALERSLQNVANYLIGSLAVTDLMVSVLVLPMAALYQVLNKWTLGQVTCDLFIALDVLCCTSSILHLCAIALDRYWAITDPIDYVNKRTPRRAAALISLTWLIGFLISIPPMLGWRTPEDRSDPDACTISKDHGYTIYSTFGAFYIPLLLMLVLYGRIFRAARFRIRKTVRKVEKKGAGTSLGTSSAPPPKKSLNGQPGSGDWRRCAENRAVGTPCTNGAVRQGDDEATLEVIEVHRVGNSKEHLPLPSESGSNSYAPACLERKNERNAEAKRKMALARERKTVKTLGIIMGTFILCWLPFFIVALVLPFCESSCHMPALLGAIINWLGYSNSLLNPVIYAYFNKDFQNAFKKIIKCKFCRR

Mus musculus [2] = assay: Effect on rectal temperature in mice at dose of 20 mg/kg sc.; assay type: functional
Mus musculus [3] = assay: Effect on rectal temperature in mice at dose of 0.5 mg/kg sc.; assay type: functional
[4] = molecular target: 5-hydroxytryptamine receptor 2A (Rattus norvegicus, UniProt P14842); assay: Compound was evaluated for the binding affinity towards 5-hydroxytryptamine 2A receptor using [3H]ketanserin radioligand.
D(2) dopamine receptor = D(2) dopamine receptor (Rattus norvegicus, UniProt P61169); assay: Binding affinity towards dopamine receptor D2 using [3H]-raclopride radioligand.
Mus musculus [5] = assay: Effect on rectal temperature in mice at dose of 10 mg/kg po.; assay type: functional
[6] = molecular target: T2, Adrenergic receptor alpha-1 (Rattus norvegicus, UniProt P15823+P23944+P43140); assay: Binding affinity towards alpha-1 adrenergic receptor using [3H]prazosin radioligand.; assay type: protein assay
T2 sequence (P15823 whole entry): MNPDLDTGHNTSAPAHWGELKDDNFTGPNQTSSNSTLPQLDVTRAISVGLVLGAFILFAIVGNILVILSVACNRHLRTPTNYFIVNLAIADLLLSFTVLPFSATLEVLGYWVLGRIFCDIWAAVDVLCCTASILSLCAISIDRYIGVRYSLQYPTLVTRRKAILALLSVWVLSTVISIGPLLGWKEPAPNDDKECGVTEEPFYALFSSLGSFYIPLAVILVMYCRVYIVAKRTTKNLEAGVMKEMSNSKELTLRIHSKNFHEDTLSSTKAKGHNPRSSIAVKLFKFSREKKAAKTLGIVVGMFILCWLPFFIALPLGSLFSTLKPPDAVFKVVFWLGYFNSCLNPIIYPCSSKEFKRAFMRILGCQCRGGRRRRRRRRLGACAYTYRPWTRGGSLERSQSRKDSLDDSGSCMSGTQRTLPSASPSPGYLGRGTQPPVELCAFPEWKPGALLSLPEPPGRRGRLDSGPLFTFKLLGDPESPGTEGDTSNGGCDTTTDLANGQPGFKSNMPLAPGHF
T2 sequence (P23944 whole entry): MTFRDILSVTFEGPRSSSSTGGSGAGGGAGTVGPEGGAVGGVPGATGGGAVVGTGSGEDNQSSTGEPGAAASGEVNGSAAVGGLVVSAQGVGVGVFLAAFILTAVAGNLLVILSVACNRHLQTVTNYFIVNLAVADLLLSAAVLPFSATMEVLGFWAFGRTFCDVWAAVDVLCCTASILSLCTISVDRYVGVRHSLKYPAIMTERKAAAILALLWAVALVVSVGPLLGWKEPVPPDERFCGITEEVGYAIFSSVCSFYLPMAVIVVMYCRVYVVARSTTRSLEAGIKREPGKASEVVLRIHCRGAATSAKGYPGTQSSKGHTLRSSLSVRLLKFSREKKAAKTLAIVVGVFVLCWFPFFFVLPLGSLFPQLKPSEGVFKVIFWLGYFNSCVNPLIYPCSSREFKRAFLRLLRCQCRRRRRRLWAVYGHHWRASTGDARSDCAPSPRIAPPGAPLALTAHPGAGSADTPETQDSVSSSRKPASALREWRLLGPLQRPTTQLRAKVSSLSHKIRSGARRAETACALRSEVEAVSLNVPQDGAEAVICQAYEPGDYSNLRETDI
T2 sequence (P43140 whole entry): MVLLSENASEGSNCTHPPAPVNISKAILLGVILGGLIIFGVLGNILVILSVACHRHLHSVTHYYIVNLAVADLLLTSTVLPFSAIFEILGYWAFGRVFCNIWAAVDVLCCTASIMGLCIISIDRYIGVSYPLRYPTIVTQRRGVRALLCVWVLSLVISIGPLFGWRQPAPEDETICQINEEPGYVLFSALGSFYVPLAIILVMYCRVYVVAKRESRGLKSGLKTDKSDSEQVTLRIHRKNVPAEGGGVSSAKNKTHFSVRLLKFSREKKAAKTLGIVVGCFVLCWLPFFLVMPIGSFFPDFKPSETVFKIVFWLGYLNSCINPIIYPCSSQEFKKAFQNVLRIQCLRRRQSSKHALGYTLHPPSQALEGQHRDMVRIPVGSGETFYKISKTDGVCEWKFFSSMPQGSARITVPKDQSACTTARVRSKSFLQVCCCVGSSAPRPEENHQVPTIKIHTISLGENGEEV

Mus musculus [7] = assay: Effect on rectal temperature in mice at dose of 30 mg/kg po; assay type: functional
Mus musculus [8] = assay: Effect on rectal temperature in mice at dose of 10 mg/kg sc.; assay type: functional
Mus musculus [9] = assay: Effect on rectal temperature in mice at dose of 5 mg/kg sc.; assay type: functional
Mus musculus [10] = assay: Effect on rectal temperature in mice at dose of 20 mg/kg po; assay type: functional
Mus musculus [11] = assay: Effect on rectal temperature in mice at dose of 40 mg/kg po; assay type: functional
Mus musculus [12] = species: Mus musculus; assay: Effect in the social interaction behavioral test in mice; assay type: functional
Mus musculus [13] = assay: Effect on rectal temperature in mice at dose of 2.5 mg/kg sc.; assay type: functional

D(2) dopamine receptor, sequence (P61169 whole entry): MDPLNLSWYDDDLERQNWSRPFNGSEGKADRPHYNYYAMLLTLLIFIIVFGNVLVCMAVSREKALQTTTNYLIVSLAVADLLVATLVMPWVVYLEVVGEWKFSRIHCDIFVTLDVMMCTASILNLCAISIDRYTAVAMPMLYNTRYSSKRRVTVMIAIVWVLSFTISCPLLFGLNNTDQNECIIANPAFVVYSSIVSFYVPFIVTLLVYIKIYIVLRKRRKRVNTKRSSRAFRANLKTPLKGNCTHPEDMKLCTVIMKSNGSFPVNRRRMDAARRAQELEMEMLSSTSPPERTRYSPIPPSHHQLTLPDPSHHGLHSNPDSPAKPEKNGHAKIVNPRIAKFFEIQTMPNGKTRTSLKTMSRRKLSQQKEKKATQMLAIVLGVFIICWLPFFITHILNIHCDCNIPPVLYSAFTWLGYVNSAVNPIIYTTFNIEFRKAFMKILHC
5-hydroxytryptamine receptor 2A, sequence (P14842 whole entry): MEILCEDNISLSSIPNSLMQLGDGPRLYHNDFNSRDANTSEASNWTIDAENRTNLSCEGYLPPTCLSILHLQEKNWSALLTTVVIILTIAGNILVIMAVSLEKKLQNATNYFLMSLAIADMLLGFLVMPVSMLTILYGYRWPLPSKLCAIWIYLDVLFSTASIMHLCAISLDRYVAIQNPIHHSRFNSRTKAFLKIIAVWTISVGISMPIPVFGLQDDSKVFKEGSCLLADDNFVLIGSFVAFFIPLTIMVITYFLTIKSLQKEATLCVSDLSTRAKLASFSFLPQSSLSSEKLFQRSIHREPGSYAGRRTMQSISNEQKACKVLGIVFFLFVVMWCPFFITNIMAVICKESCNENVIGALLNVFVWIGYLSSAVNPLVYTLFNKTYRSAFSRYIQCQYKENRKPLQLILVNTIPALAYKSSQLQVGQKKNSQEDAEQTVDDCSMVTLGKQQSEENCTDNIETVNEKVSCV

Compound | Ki [1] | T decrease (Mus musculus [2]) | T decrease (Mus musculus [3]) | Ki [4] | Ki (D(2) dopamine receptor) | T decrease (Mus musculus [5]) | Ki [6] | T decrease (Mus musculus [7]) | T decrease (Mus musculus [8]) | T decrease (Mus musculus [9]) | T decrease (Mus musculus [10]) | T decrease (Mus musculus [11]) | ED50 (Mus musculus [12]) | Max effect (Mus musculus [12]) | T decrease (Mus musculus [13])
COc1ccccc1N1CCN(CN2C(=O)C3CCCCN3C2=O)CC1 (stereo not given) | 31.7 nM | -1.56 °C | 0.37 °C | > 1000 nM | > 10000 nM | -0.3 °C | > 1000 nM | -0.28 °C | -1.46 °C | -0.78 °C | 0.22 °C | -0.85 °C | 3.58 mg/kg | 130.8 s | 0.06 °C
CCCN(CCC)C1CCc2cccc(O)c2C1 (stereo not given) [8-OH-DPAT] | – | – | -0.9 °C | – | – | – | – | – | -2.26 °C | -1.66 °C | – | – | 0.58 mg/kg | 132.2 s | -1.7 °C
O=C1C2CCCCN2C(=O)N1CCCCN1CCN(c2cccc(C(F)(F)F)c2)CC1 (stereo not given) | 9.9 nM | -2.73 °C | -0.58 °C | – | 90.6 nM | 0.07 °C | 72.4 nM | -1.23 °C | -1.55 °C | -0.92 °C | -0.55 °C | -1 °C | 1.25 mg/kg | 56.5 s | -0.77 °C
